Results: US20240076272A1, “Activators of Heme Regulated Inhibitor Kinase (HRI)” (The Brigham and Women`s Hospital, Inc., priority 2019, published 2024)
Where two headings read alike, the source gives them in different places.

Assays:
[1] = test system: human melanoma CRL-2813 cells; assay: sulforhodamine B (SRB) cell proliferation assay; format: cell-based; settings: 5 days, read-out: IC50 (concentration that inhibits growth of human melanoma CRL-2813 cells by 50%)
Method: Cells were seeded in 96-well plates and maintained for 5 days in the presence of 0.5 μM to 20 μM of individual compound, and cell proliferation was measured by the sulforhodamine B (SRB) assay according to previous reports (see e.g., Palakurthi et al, Cancer Res. 60 (2000) 2919-2925): briefly, at the end of a 5-day treatment, cells were fixed in 10% cold trichloroacetic acid. Cell number was estimated by measuring the remaining bound dye of sulforhodamine B after washing. The percentage of growth was calculated by using the equation: 100×[(T-T0)/(C-T0)], where T and C represent the absorbance in treated and control cultures at Day 5, and T0 at time zero, respectively. If T was less than T0, cell death had occurred and was calculated from 100×[(T-T0)/T0].
All 4-CF3-ΦOcAlkΦUs were tested in the sulforhodamine B (SRB) cell proliferation assay to establish the concentrations that inhibit human melanoma CRL-2813 cells growth by 50% (IC50) (see Table 1). This activity reflects a combined effect of membrane permeability and overall anti-proliferative effects that include on target and off-target effects.

[2] = test system: CHOP; assay: Western blot, CHOP expression in CRL-2813 cells; format: cell-based, human; settings: 5 μM, 8 hours, Western blot (FIG. 2B)
Method: FIGS. 2A-2B show HRI activators of the present application induce eIF2α phosphorylation and modify its downstream effectors. In FIG. 2A, CRL-2813 cells were treated with 5 μM of each compound for 2 hours, cell lysates were probed with phosphorylated (P-eIF2α) and total eIF2α (T-eIF2α) and β-actin specific antibodies. In FIG. 2B, CRL-2813 cells were treated with 5 μM HRI activators for 8 hours and lysates were immunoblotted with antibodies against CHOP, p27^KiPl, cyclin D1 and β-actin.
Cells cultured under recommended media conditions were plated and maintained in serum-containing media without antibiotics in 14-cm plates (Nunc) until reaching 70% confluence. Cells were then treated with compounds for 6 h, washed with cold PBS once, and lysed with M-PER Mammalian Protein Extraction Reagent (Pierce) for 30 min on ice. The cell lysates were centrifuged at 12,000 RPM for 15 min and the supernatants were transferred to fresh tubes and the concentrations were determined by BCA (Pierce). Equal amount of proteins were mixed with Laemmli Sample Buffer, heated at 100° C. for 5 min, separated by SDS-PAGE, and probed with anti-phosphoserine-51-eIF2α (Phos-eIF2α), anti-total eIF2α-specific antibodies (Total-eIF2α) (Biosource International, Hopkinton, MA), anti-CHOP, anti-cyclin D1 or anti-actin (Santa Cruz Biotechnology, CA) using procedures substantially similar to previous reports (see e.g., Aktas et al, Mol. Cell. Biol. 17 (1997) 3850-3857).
Endogenous eIF2α is the best-known substrate of HRI and the upstream regulator of the eIF2·GTP·Met-tRNAi ternary complex abundance, while CHOP expression is a downstream effector of eIF2α phosphorylation. For assessing eIF2α phosphorylation, blotted cell lysates were treated for two hours with vehicle or selected compounds using antibodies specific for the total-eIF2α and the phosphorylated-eIF2α (T-eIF2α and [PhoS^51]-eIF2α), respectively (see e.g., Aktas et al, J. Nutr. 134 (2004) 2487S-2491S) (see FIG. 2A).

[3] = test system: MCF-7 cells transfected with siRNA targeting HRI; assay: cell proliferation assay with siRNA knockdown of HRI (specificity for HRI); format: cell-based, human; settings: MCF-7 cells with or without siRNA targeting HRI; three days; SRB (FIG. 3)
Method: MCF-7 cells transfected with (solid bars) or without (hatched bars) siRNA targeting HRI were treated with the indicated concentrations of each compound for three days starting one day after transfection. Cell proliferation was measured by sulforhodamine B assay as previously reported (see e.g., Chen et al, Nat. Chem. Biol. 7 (2011) 610-616).
Stable cell lines utilized in this study were generated according to previous reports (see e.g., Bai et al, ChemBioChem, 14 (2013) 1255-1262). Briefly, cells were seeded at the density of 10^5 in 60-mm dish and transfected one day later using the Lipofectamine 2000 (Invitrogen). For selection of stable cell lines, transfected cells were transferred to 100-mm plates and selected with appropriate antibiotics (see e.g., Chen et al, Nat. Chem. Biol. 7 (2011) 610-616). siRNA knockdown was carried out in 96-well plates by reverse transfection as previously reported (see e.g., Chen et al, Nat. Chem. Biol. 7 (2011) 610-616).
To determine the specificity of the compounds described herein for HRI, knockdown expression of HRI in MCF-7 cells using a pool of siRNA targeting HRI was performed, along with a cell proliferation assay as a biologic response parameter (see e.g., Chen et al, Nat. Chem. Biol. 7 (2011) 610-616; and Chen et al, J. Med. Chem. 56 (2013) 9457-9470). This assay was selected because it compares specificity of the compounds for HRI compared to all other cellular targets that can impinge on cell proliferation. MCF-7 human breast cancer cells transfected with siRNA targeting HRI or vehicle were treated with various concentrations of representative 4-CF3-ΦOcHΦUs (1-VI, 4-VI, and 5-VI) and 4-CF3-ΦOcBΦU (1-IV).

[4] = test system: human melanoma; settings: xenograft mice model of human melanoma; cited from earlier work

| Compound | melting point [°C] | IC50 ([1]; Homo sapiens, CRL2813, 120 h) [nM] | expression of CHOP relative to DMSO [2] | effect of knocking down HRI on the anti-proliferative activity [3] | IC50 [1] [nM] | in vivo efficacy [4] | organ toxicity [4] |
| --- | --- | --- | --- | --- | --- | --- | --- |
| N#Cc1cc(NC(=O)N[C@H]2C[C@H](Oc3ccc(C(F)(F)F)cc3)C2)cc(C(F)(F)F)c1 [Compound 1-IV, 1-(3-Cyano-5-(trifluoromethyl)phenyl)-3-(trans-3-(4-(trifluoromethyl)phenoxy)cyclobutyl)urea] | 191.6 to 193 | 900 | increased the expression of CHOP | dramatic reduction in the activity |  |  |  |
| N#Cc1cc(NC(=O)N[C@H]2CC[C@H](Oc3ccc(C(F)(F)F)cc3)CC2)cc(C(F)(F)F)c1 [Compound 1-VI, 1-(3-cyano-5-trifluoromethyl) phenyl-3-(trans-4-(4-(trifluoromethyl)phenoxy)cyclohexyl)urea, reference compound] |  |  | increased the expression of CHOP | dramatic reduction in the activity | 350 | in vivo efficacy | no apparent organ toxicity |
| N#Cc1cc(F)cc(NC(=O)N[C@H]2CC[C@H](Oc3ccc(C(F)(F)F)cc3)CC2)c1 [Compound 4-VI, 1-(3-Cyano-5-fluorophenyl)-3-(trans-4-(4-(trifluoromethyl)phenoxy)cyclohexyl)urea] | 237.8 to 240.8 |  | increased the expression of CHOP | dramatic reduction in the activity | 630 ± 300 |  |  |
| N#Cc1ccc(NC(=O)N[C@H]2CC[C@H](Oc3ccc(C(F)(F)F)cc3)CC2)cc1F [Compound 5-VI, 1-(4-Cyano-3-fluorophenyl)-3-(trans-4-(4-(trifluoromethyl)phenoxy)cyclohexyl)urea] |  | 460 | increased the expression of CHOP | dramatic reduction in the activity |  |  |  |
